Data published in patent US5236955A, “Anti-fungal agent” (Washington University, priority 1992, dated 1993).

Assays:
C. neoformans [1] = assay: Growth of C. neoformans cultures (absorbance at 600 nm); format: cell-based, Cryptococcus neoformans; details: single 300 μM dose, exponential phase, 30° C., SAB, up to 24 h
Method: Panel A, survey of the effects of several oxatetradecanoic acids on the growth of C. neoformans. A culture of C. neoformans was grown at 30° C. in SAB media to midlog phase (A600 ~0.5). A single dose of fatty acid was then added to subcultures (final concentration=300 μM). EtOH(0.1%) was used as a negative control. Amphotericin B (AmB) was added (final concentraton=55 μM) as a positive control. Aliquots were withdrawn from the subcultures 0, 0.5, 2, 4, 7, 21, and 24 h after these additions and then absorbance at 600 nm was measured. All assays were done in duplicate or triplicate. A representative test is shown. Panel B, survey of the effects of oxatetradecanoic acids, dioxatetradecanoic acids and oxatridecanoic acids on the viability of C. neoformans. Fatty acid analog was added to the cultures as in Panel A. Aliquots were withdrawn 0.5, 2, 4, 7 or 8, and 24 h later and plated on SAB-agar at various dilutions to determine the number of viable organisms/ml culture. All assays were done in duplicate. Data from a representative test are expressed as the ratio of viable cells in treated cultures relative to a control culture that received 0.1% EtOH. A positive control culture received a single dose of amphotericin B (55 μM); Panel C, dose-dependent reduction in the viability of C. neoformans after addition of 4-oxatetradecanoic acid (O4) to cultures during log-phase growth at 30° C. in SAB. A single dose of the analog was given at T=0 h in the amount indicated and aliquots of the culture were withdrawn at various times to determine the number of viable cells. All assays were done in triplicate. A representative test is shown.
Saccharomyces cerevisiae strain YM2061 (MATa ura3-52 his3Δ200 ade2-101 lys2-801 met LEU2::pRY181 can1; Flick and Johnston, Mol. Cell. Biol. 10, 4757-4769 (1990), Candida albicans strain B311 (obtained from the American Type Tissue Culture, Rockville, Md.), or Cryptococcus neoformans strain L210425 (a clinical isolate that is part of the permanent culture collection of the Mycology Laboratory, Barnes Hospital, St. Louis, Mo.) were grown overnight at 30 C. The S. cerevisiae strain was incubated in YPD medium (1% bacto-yeast extract, Gibco, Long Island, N.Y.), 2% bacto-peptone (Gibco), 2% dextrose). The C. albicans and C. neoformans strains were grown in Sabouraud's media (SAB; 2% (w/v) dextrose, 1% bacto-peptone). The following morning the cultures were diluted into fresh medium to the desired density at 600 nm (early log phase), and subsequently incubated in a rotary shaker at 30° C. until an A600 =0.5 (mid log phase) was achieved. The culture was then divided into 10 ml aliquots. A single 10 μl aliquot of a stock solution of fatty acid analog (prepared in various concentrations using absolute ethanol) was added to the culture so that the final concentration of the compound was 100-500 μM (T=0). Ten microliters of ethanol alone was added to one 10 ml culture which served as the negative control. […] Cell viability was determined at each of these time points by (i) serially diluting the aliquot in 0.15M NaCl and counting cell number in a hemocytometer and (ii) plating 2-3 of the dilutions in triplicate onto plates of SAB/agar (C. albicans and C. neoformans) or YPD/agar (S. cerevisiae). […] The data were expressed as the ratio of viable cells/ml in the fatty acid analog treated subculture to the number of viable cells/ml in the negative (ethanol) control culture. […]

C. neoformans [2] = assay: Metabolic stability of O4 and resistance in C. neoformans cultures; format: cell-based, Cryptococcus neoformans
Method: Cultreus of C. neoformans were exposed to a single dose of 300 μM O4 or 0.1% EtOH during mid-log phase growth (O4A, EtOH1) as in FIG. 1. Two hours later, an aliquot was removed from the culture and subjected to centrifugation at 1500×g for 10 min. The "used" O4-containing media was added to EtOH-treated cells (O4B). "Fresh" O4 was added to cells (final concentration=300 μM) that had already been exposed to O4 for 2 h (O4C). at 24 H, O4-treated cells were again pelleted and resuspended in "fresh" O4-containing media (final concentration=300 μM (O4E)). The "used" O4 media was added to a fresh culture of untreated cells (O4D) and their growth was compared to an identical population of cells treated with EtOH alone (EtOH2).
A series of tests were conducted to assess the metabolic stability of the compound (FIG. 2). Media was harvested from cells treated with a single dose of 300 μM O4 for 2 hr or for 24 hr and added to a exponentially growing culture of C. neoformans that had never been exposed to fatty acid analog. 100 fold and 10 fold decreases (respectively) in viable cell number were observed over the ensuing 2 hr (O4B and O4D in FIG. 2). […] Exponentially growing cultures were also exposed to a single 300 μM dose of O4, a single dose of 0.1% EtOH, or to no additions. Aliquots of each of the cultures were removed 4 and 24 hr later and plated on Sabouraud/agar. […]

C. albicans = assay: Viability of C. albicans; format: cell-based; details: Candida albicans
Method: (§1) Oxatetradecanoic acids were added (final concentraton=25-500 μM) as a single dose to log phase cultures of C. alibcans grown in SAB at 30° C. (Panels A and B) and to log phase cultures of S. cerevisiae grown in YPD at 30° C. (Panels C and D). The results were compared to the number of viable organisms present in cultures treated with 0.1% EtOH alone. […] A single does of alphotericin B (final concentration=55 μM) was added to parallel cultures which served as positive controls. Assays were done in duplicate. Representative tests are shown.
(§2) Saccharomyces cerevisiae strain YM2061 (MATa ura3-52 his3Δ200 ade2-101 lys2-801 met LEU2::pRY181 can1; Flick and Johnston, Mol. Cell. Biol. 10, 4757-4769 (1990), Candida albicans strain B311 (obtained from the American Type Tissue Culture, Rockville, Md.), or Cryptococcus neoformans strain L210425 (a clinical isolate that is part of the permanent culture collection of the Mycology Laboratory, Barnes Hospital, St. Louis, Mo.) were grown overnight at 30 C. The S. cerevisiae strain was incubated in YPD medium (1% bacto-yeast extract, Gibco, Long Island, N.Y.), 2% bacto-peptone (Gibco), 2% dextrose). The C. albicans and C. neoformans strains were grown in Sabouraud's media (SAB; 2% (w/v) dextrose, 1% bacto-peptone). The following morning the cultures were diluted into fresh medium to the desired density at 600 nm (early log phase), and subsequently incubated in a rotary shaker at 30° C. until an A600 =0.5 (mid log phase) was achieved. The culture was then divided into 10 ml aliquots. A single 10 μl aliquot of a stock solution of fatty acid analog (prepared in various concentrations using absolute ethanol) was added to the culture so that the final concentration of the compound was 100-500 μM (T=0). Ten microliters of ethanol alone was added to one 10 ml culture which served as the negative control. Amphotericin B (AmB; in the form of Fungizone, Squibb) was added (final concentration=55 μM) to another culture which served as the positive control. At T=0 and 0.5-24 h after addition of fatty acid analog to the subcultures, an aliquot was removed for determining the density of the subculture at 600 nm. Cell viability was determined at each of these time points by (i) serially diluting the aliquot in 0.15M NaCl and counting cell number in a hemocytometer and (ii) plating 2-3 of the dilutions in triplicate onto plates of SAB/agar (C. albicans and C. neoformans) or YPD/agar (S. cerevisiae). These plates were subsequently incubated at 30° C. for 24-48 hr to allow for the growth of colonies. The data were expressed as the ratio of viable cells/ml in the fatty acid analog treated subculture to the number of viable cells/ml in the negative (ethanol) control culture.

S. cerevisiae = assay: Viability of S. cerevisiae; format: cell-based; details: Saccharomyces cerevisiae
Method: as §1, §2

CCCCCCCCCCOCCC(=O)O [O4, 4-oxatetradecanoic acid]
effect on growth of C. neoformans, as determined by optical density (C. neoformans [1]): growth arrest equivalent to that observed with 55 μM amphotericin B | log reduction at 300 µM (C. neoformans [2]; Cryptococcus neoformans, cells already exposed for 2 hr or 24 hr (O4C, O4E), read-out: further reduction in viable cell number on fresh 300 μM media (converted)): 0.699 | resistance or tolerance of cells after exposure (C. neoformans [2]; colonies from cultures exposed 4 and 24 hr, re-exposed to 300 μM): do not become resistant or tolerant | log reduction at 300 µM (C. albicans; 300 μM, 2 hr after addition, read-out: reductions in the number of viable C. albicans): < 0.699 | log reduction at 500 µM (C. albicans; 500 μM, read-out: reduction in the number of viable organisms (C. albicans)): 1 to 2 | log reduction at 300 µM (S. cerevisiae; 300 μM, 2 hr after addition, read-out: reductions in the number of viable S. cerevisiae): < 0.699 | log reduction at 500 µM (S. cerevisiae; 500 μM, read-out: reduction in the number of viable organisms (S. cerevisiae)): 1 to 2
